Where a name gives a salt, the structure may show the parent alone. Read-outs that look alike come from different tables or passages of the source.
Key:
[1] = biological target: EGFR L858R (Homo sapiens (Human), UniProt P00533, L858R); test: HTRF-based EGFR biochemical assay (L858R); conditions: 100 μM ATP, enzyme 0.1 nM
Method: (§1) Example 25: HTRF-Based EGFR Biochemical Assays
(§2) EGFR biochemical activity measurements were carried out using the homogeneous time-resolved fluorescence (HTRF) assay (Cisbio), inhibitors and DMSO normalizations were first dispensed to empty black low-volume 384-well plates (Corning) with 0300 digital liquid dispenser (HP). All reactions were carried out at room temperature and solutions were added to plates with a Multidrop Combi Reagent Dispenser (ThermoFisher). The reaction mixture (10 μL final volume) contained 1 μM tyrosine kinase peptide-biotin substrate and mutant EGFR in a reaction buffer (50 mM HEPES pH 7.0, 5 mM MgCl2, 1 mM MnCl2, 0.01% BSA, 2 mM TCEP, 0.1 mM NaVO4). Enzyme concentrations were adjusted to accommodate varying kinase activities (L858R 0.1 nM, L858R/T790M 0.02 nM). Enzyme reaction solution (2× concentrations, 5 μL) was added to 384-well plates containing compounds and incubated for 30 mins. Enzyme reactions were initiated with the addition of 5 μL of ATP to a final concentration of 100 μM and reacted for 20 mins. Reactions were quenched with the addition of 10 μL of phospho-tyrosine antibody-Europium(III) cryptate (1-to-180 volume ratio) and Streptavidin-XL665 (46.7 nM) in EDTA-containing detection buffer, then incubated at room temperature for 1 hour, and read with a PHERAstar plate reader (excitation=337 nm, emission=620 nm and 665 nm).

[2] = biological target: EGFR L858R/T790M (Homo sapiens (Human), UniProt P00533, L858R/T790M); test: HTRF-based EGFR biochemical assay (L858R/T790M); conditions: 100 μM ATP, enzyme 0.02 nM
Method: as §1, §2

[3] = tested on: EGFR mutant L858R/T790M Ba/F3 cells; test: Ba/F3 cell proliferation model (Cell Titer Glo), EGFR L858R/T790M; assay type: cell-based, murine; conditions: 72 hours
Description: Example 26: Ba/F3 Cell Proliferation Models
The EGFR mutant L858R and L858R/T790M Ba/F3 cells have been previously described (Zhou, W., et al. Nature 462, 2009, 1070-1074). All cell lines were maintained in RPM 1640 (Cellgro; Mediatech Inc., Herndon. CA) supplemented with 10% FBS, 100 units/mL penicillin, 100 units/mL streptomycin. The EGFR I941R mutation was introduced via site directed mutagenesis using the Quick Change Site-Directed Mutagenesis kit (Stratagene; La Jolla, CA) according to the manufacturer's instructions. All constructs were confirmed by DNA sequencing. The constructs were shuttled into the retroviral vector JP1540 using the Cre-recombination system (Agilent Technologies, Santa Clara, CA). Ba/F3 cells were then infected with retrovirus per standard protocols, as described previously (Zhou, et al, Nature 2009). Stable clones were obtained by selection in puromycin (2 μg/ml).
Growth and inhibition of growth was assessed by the Cell Titer Glo® assay (Promega, Madison, WI) and was performed according to the manufacturer's instructions. The Cell Titer Glo® assay is a luminescence-based method used to determine the number of viable cells based on quantitation of the ATP present, which is directly proportional to the amount of metabolically active cells present. Ba/F3 cells of different EGFR genotypes were exposed to compounds as a single agent or in combination with 1 μg/mL cetuximab for 72 hours and the number of cells used per experiment was determined empirically as has been previously established (Zhou, et al., Nature 2009). All experimental points were set up in triplicates in 384-well plates and all experiments were repeated at least three times. […] The curves were fitted using a non-linear regression model with a sigmoidal dose response.

[4] = Mus musculus, BaF3, single agent, read-out: Cell IC50 BaF3 EGFR L858R/T790M
[5] = in combination with 1 μg/mL cetuximab, read-out: Cell IC50 BaF3 EGFR L858R/T790M (+cetux.)

Chain of EGFR L858R/T790M (P00533 25-1210 T790M/L858R): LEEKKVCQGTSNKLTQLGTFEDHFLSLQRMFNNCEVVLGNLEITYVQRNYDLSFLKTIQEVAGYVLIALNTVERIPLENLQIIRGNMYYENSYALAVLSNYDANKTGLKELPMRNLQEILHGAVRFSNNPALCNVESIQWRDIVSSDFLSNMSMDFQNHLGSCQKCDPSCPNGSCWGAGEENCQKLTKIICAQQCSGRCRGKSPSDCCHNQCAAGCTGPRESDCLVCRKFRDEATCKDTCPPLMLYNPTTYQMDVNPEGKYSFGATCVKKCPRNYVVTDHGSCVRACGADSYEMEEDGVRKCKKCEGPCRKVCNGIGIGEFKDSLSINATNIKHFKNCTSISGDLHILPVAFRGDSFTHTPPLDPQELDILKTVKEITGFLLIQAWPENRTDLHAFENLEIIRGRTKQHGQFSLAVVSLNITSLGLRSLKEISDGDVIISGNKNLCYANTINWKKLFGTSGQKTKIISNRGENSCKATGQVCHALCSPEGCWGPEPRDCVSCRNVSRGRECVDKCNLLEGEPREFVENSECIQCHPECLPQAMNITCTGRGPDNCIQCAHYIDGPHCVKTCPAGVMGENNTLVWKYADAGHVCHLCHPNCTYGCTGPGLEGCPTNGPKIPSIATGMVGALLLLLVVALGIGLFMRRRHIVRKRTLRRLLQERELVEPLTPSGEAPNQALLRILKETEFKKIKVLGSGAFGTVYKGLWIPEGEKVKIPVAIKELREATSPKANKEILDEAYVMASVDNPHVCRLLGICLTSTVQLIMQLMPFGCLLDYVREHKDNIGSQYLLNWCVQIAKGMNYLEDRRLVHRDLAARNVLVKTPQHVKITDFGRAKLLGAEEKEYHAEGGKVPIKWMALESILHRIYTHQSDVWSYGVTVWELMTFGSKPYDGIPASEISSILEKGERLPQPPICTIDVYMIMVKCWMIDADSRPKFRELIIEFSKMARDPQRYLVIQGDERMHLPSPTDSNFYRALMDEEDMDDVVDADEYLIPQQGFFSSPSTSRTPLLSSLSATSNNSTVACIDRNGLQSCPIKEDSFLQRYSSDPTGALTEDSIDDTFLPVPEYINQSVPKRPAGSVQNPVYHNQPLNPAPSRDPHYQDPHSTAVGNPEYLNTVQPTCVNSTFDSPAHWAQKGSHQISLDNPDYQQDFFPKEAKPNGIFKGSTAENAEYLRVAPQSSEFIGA
Chain of EGFR L858R (P00533 25-1210 L858R): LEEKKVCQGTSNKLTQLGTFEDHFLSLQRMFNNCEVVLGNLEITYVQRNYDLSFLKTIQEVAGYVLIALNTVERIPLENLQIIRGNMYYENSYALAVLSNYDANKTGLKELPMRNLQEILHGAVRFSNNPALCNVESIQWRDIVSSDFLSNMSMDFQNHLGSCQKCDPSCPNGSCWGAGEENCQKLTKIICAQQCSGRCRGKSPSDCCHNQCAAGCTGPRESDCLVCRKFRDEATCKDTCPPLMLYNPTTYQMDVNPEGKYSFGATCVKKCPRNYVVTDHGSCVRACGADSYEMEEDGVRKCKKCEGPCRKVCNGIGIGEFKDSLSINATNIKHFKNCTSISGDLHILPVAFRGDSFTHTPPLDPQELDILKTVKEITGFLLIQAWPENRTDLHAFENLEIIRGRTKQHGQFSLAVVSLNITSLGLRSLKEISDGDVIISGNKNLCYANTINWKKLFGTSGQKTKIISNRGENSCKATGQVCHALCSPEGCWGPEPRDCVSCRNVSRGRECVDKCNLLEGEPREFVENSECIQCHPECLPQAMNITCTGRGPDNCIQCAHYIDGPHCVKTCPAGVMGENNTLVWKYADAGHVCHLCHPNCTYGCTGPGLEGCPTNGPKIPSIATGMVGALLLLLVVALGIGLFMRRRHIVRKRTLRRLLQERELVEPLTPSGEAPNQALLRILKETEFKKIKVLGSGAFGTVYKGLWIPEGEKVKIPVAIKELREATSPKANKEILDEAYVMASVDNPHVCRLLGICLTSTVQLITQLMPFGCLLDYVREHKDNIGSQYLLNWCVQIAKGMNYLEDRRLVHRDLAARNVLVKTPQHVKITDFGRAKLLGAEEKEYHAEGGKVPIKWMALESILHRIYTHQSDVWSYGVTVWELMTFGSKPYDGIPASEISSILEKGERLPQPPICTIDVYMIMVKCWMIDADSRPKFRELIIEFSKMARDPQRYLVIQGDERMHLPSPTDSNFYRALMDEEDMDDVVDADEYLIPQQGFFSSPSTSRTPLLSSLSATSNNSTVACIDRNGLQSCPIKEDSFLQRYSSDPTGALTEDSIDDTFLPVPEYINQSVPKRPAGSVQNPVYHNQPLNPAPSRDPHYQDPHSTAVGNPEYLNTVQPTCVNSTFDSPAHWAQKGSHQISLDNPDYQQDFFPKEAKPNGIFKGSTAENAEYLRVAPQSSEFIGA

Row | Compound | IC50 [1] | IC50 [2] | IC50 [3, 4] | IC50 [3, 5]
1 | O=C1c2cc(-c3ccc(-c4cn[nH]c4)cc3)ccc2CN1C(c1nc2ccccc2[nH]1)c1cc(F)ccc1O (stereo not shown) [Compound 057, 2-[1H-benzimidazol-2-yl-(5-fluoro-2-hydroxy-phenyl)-methyl]-6-[4-(1H-pyrazol-4-yl)-phenyl]isoindolin-1-one] | 37 nM | 17 nM | 550 nM | 10 nM
2 | CN1CCC(c2ccc(-c3ccc4ncn(C(c5nc6ccccc6[nH]5)c5cc(F)ccc5O)c(=O)c4c3F)cc2F)CC1 (stereo not shown) [Compound 007, 3-[1H-benzimidazol-2-yl-(5-fluoro-2-hydroxy-phenyl)methyl]-5-fluoro-6-[3-fluoro-4-(1-methyl-4-piperidyl)phenyl]quinazolin-4-one; hydrochloride] | 1 nM | 0.4 nM | 520 nM | 9 nM
3 | CN1CCC(c2ccc(-c3ccc4c(F)cn(C(c5nc6ccccc6[nH]5)c5cc(F)ccc5O)c(=O)c4c3)cc2)CC1 (stereo not shown) [Compound 054, 2-[1H-benzimidazol-2-yl-(5-fluoro-2-hydroxy-phenyl)-methyl]-4-fluoro-7-[4-(1-methy-4-piperidyl)phenyl]isoquinolin-1-one] | 2 nM | 0.4 nM | 1060 nM | 20 nM
4 | Cn1cc(-c2ccc(-c3ccc4c(c3)C(=O)N(C(c3nc5ccccc5[nH]3)c3cc(F)ccc3O)C4)cc2)cn1 (stereo not shown) [Compound 058, 2-[1H-benzimidazol-2-yl-(5-fluoro-2-hydroxy-phenyl)-methyl]-6-[4-(1-methylpyrazol-4-yl)phenyl]isoindolin-1-one; dihydrochloride] | 67 nM | 12 nM | 1420 nM | 20 nM
5 | CN1CCC(c2ccc(-c3ccc4c(c3)C(=O)N(C(c3nc5cc(F)ccc5[nH]3)c3cc(F)ccc3O)C4)cc2)CC1 (stereo not shown) [Compound 046, 2-[(5-fluoro-1H-benzimidazol-2-yl)-(5-fluoro-2-hydroxy-phenyl)-methyl]-6-[4-(1-methyl-4-piperidyl)phenyl]isoindolin-1-one; formic acid] | 4 nM | 0.7 nM | 860 nM | 20 nM

Now from value to compound:

Row | IC50 [1] | IC50 [2] | IC50 [3, 4] | IC50 [3, 5] | Compound
6 | 42 nM | 5 nM | 5410 nM | 170 nM | CN1CCC(c2ccc(-c3ccc4ncn(C(c5cccc(F)c5)c5nc6ccccc6[nH]5)c(=O)c4n3)cc2)CC1 (stereo not shown) [Compound 008, 3-((1H-Benzo[d]imidazol-2-yl)(3-fluorophenyl)methyl)-6-(4-(1-methylpiperidin-4-yl)phenyl)-pyrido[3,2-d]pyrimidin-4(3H)-one 2,2,2-trifluoroacetate]
7 | 8 nM | 1 nM | 1220 nM | 20 nM | CN1CCC(c2ccc(-c3ccc4ncn(C(c5cccc(F)c5)c5nc6ccccc6[nH]5)c(=O)c4c3F)cc2)CC1 (stereo not shown) [Compound 005, 3-((1H-Benzo[d]imidazol-2-yl)(3-fluorophenyl)methyl)-5-fluoro-6-(4-(1-methylpiperidin-4-yl)phenyl)-quinazolin-4(3H)-one 2,2,2-trifluoroacetate]
8 | 150 nM | 11 nM | 3050 nM | 180 nM | CN1CCC(c2ccc(-c3ccc4c(c3)C(=O)N(C(c3cccc(F)c3)c3nc5cccnc5[nH]3)C4)cc2)CC1 (stereo not shown) [Compound 025]
9 | 27 nM | 18 nM | 5500 nM | 110 nM | CN1CCC(n2cc(-c3ccc4c(c3)C(=O)N(C(c3nc5ccccc5[nH]3)c3cc(F)ccc3O)C4)cn2)CC1 (stereo not shown) [Compound 060, 2-[1H-benzimidazol-2-yl-(5-fluoro-2-hydroxy-phenyl)-methyl]-6-[1-(1-methyl-4-piperidyl)pyrazol-4-yl]isoindolin-1-one; hydrochloride]
10 | 6 nM | 2 nM | 2540 nM | 20 nM | CN1CC(c2ccc(-c3ccc4c(c3)C(=O)N(C(c3nc5ccccc5[nH]3)c3cc(F)ccc3O)C4)cc2)C1 (stereo not shown) [Compound 049, 2-[1H-benzimidazol-2-yl-(5-fluoro-2-hydroxy-phenyl)methyl]-6-[4-(1-methylazetidin-3-yl)phenyl]isoindolin-1-one]

Source: US12391671B2, “Allosteric EGFR inhibitors and methods of use thereof” (Dana-Farber Cancer Institute, Inc., priority 2019, dated 2025)
